Measurements published in PMC6193120, “Substrate Specificity Analysis of Dihydrofolate/Dihydromethanopterin Reductase Homologs in Methylotrophic α-Proteobacteria” (Frontiers in Microbiology, 2018).

Key:
[1] = test system: T1, Mno-DAGK-H6; experiment: NADPH oxidation at […] nm, anaerobic; format: biochemical, Methylobacterium nodulans; settings: 0.1 mM NADPH, pH 5.3, sodium acetate; H2SPT from partially oxidized Methanosarcina thermophila H4SPT fraction; read-out: KM(app)
T1 construct: gene dmrA

[2] = test system: T2, Hni-DAGK-H6; experiment: NADPH oxidation at […] nm, anaerobic; format: biochemical, Hyphomicrobium nitrativorans; settings: 0.1 mM NADPH, pH 5.3, sodium acetate; H2SPT from partially oxidized Methanosarcina thermophila H4SPT fraction; read-out: KM(app)
T2 construct: gene dmrA

[3] = biological target: T3, M. extorquens AM1 DmrA-H4 (Methylorubrum extorquens, UniProt C5B2R8); experiment: NADPH oxidation at […] nm, anaerobic; format: biochemical; settings: 0.1 mM NADPH, pH 5.3, sodium acetate; H2SPT from partially oxidized Methanosarcina thermophila H4SPT fraction; read-out: KM(app)
T3 sequence (C5B2R8 1-135): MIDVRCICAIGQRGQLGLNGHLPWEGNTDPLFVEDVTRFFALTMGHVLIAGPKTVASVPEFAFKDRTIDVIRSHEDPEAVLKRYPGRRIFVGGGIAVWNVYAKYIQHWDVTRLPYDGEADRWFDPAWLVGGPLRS

[4] = substrate: Nc1nc2c(c(=O)[nH]1)N=C(CNc1ccc(C(=O)N[C@@H](CCC(=O)O)C(=O)O)cc1)CN2; experiment: purified protein; format: biochemical, Methylorubrum extorquens; settings: 100 μM NADPH, pH 6.8, room temperature

Molecule	Km [1] [µM]	Km [2] [µM]	Km [3] [µM]	Km [4] [µM]
dihydrosarcinapterin	695 ± 176	102 ± 73	193 ± 71	–
H6-DfrA (Methylorubrum extorquens) (protein) MAQPRISLVAAIARNGVIGRDNSLAWRLSSDLKRFKALTMGKPILMGRKTWDSIGRPLPGRRSLVITRDRSLALSDVTVVHDWDEALAAAGDDELMVVGGAEIYRLALPHADRLHLTEVDAAPEGDAYFPPFDRSLFRETLREAHGPGERDEFAFQFVDLERLGSR	–	–	–	14 ± 3.0
H6-DfrB (Methylorubrum extorquens) (protein, megaplasmid-encoded) MDVRLIAAIGRRGQLGLEGDMPWGRSFPDDLRRFRELTAGGIVLVGWRTWPTVERLQGTHGRRFVVDDVKLPPTGMLVRLQEPDASGTRDRPVWIAGGAKTYARYARFVDEFVVRRVPYDGPADTWMPDLLGTPEADRTDGPYTGRSPTDKQWRPGCRRLRDR	–	–	–	18 ± 8.9
